Reference: ChEMBL document CHEMBL4808180, “Identification of 2,2-Dimethylbutanoic Acid (HST5040), a Clinical Development Candidate for the Treatment of Propionic Acidemia and Methylmalonic Acidemia” (J Med Chem, 2021)
pEC50, pIC50: −log10 of the molar value.

What was measured:
[1] = Tmax in CD1 mouse at 30 mg/kg, po; type: ADME, organism-based; details: in vivo
[2] = target: T1, Broad substrate specificity ATP-binding cassette transporter ABCG2 (Homo sapiens, UniProt Q9UNQ0); assay: Inhibition of human BCRP assessed as reduction in E3S transport at 24000 uM relative to control
T1 sequence (Q9UNQ0 whole entry): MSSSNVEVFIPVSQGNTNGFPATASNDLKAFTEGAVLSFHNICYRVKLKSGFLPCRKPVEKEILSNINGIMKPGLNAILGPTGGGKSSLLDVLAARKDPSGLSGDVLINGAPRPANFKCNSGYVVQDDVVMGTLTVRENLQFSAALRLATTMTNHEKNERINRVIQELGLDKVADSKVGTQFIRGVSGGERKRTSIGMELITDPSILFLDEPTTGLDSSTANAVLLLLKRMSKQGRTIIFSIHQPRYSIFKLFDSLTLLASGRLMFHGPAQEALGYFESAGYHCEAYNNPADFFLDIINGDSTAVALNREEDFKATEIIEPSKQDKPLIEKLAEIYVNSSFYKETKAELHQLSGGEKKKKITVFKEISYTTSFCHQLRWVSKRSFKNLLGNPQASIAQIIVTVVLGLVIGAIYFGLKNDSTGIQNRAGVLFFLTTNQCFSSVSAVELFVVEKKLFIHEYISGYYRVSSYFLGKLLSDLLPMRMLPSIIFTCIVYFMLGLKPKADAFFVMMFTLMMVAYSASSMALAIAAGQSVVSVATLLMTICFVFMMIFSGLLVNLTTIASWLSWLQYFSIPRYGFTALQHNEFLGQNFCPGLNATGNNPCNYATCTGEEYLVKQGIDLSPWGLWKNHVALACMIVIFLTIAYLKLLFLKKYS

[3] = Drug metabolism in human hepatocytes derived from methylmalonic acidemia patient assessed as formation of 2,2-dimethylbutanoic acid-CoA pretreated for 30 mins followed by 13C-isoleucine addition and measured after 1 hr by MS/MS analysis relative to control; type: ADME, cell-based; details: Hepatocyte
[4] = Apparent permeability of the compound across apical to basal side in human Caco-2 cells; type: ADME, cell-based
[5] = target: T2, OATP1B3 (Homo sapiens, UniProt Q9NPD5); assay: Inhibition of human OATP1B3 assessed as reduction in OATP1B3-mediated E217betaG transport at 14900 uM relative to control; details: not told, probe E217betaG
T2 sequence (Q9NPD5 whole entry): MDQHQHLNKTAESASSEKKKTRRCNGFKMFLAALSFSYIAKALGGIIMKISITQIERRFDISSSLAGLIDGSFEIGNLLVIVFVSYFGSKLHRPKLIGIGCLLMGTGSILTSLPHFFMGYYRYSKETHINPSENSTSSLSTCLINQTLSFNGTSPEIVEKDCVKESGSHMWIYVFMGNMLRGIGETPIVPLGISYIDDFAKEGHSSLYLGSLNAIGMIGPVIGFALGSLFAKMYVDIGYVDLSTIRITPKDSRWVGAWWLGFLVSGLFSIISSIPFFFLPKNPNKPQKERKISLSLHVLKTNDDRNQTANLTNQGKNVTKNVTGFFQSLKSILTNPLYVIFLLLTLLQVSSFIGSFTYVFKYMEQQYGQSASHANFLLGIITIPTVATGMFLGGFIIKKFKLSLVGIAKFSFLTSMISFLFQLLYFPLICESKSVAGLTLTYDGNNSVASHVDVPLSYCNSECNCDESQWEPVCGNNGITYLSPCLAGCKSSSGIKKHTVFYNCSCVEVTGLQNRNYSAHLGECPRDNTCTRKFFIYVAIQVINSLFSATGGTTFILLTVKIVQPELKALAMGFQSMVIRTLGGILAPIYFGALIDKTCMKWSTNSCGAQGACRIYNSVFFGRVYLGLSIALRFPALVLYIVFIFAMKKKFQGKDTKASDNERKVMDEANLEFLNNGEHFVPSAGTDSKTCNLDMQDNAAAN

[6] = target: T3, Solute carrier family 22 member 6 (Homo sapiens, UniProt Q4U2R8); assay: Inhibition of human OAT1 assessed as reduction in OAT1-mediated tenofovir transport
T3 sequence (Q4U2R8 whole entry): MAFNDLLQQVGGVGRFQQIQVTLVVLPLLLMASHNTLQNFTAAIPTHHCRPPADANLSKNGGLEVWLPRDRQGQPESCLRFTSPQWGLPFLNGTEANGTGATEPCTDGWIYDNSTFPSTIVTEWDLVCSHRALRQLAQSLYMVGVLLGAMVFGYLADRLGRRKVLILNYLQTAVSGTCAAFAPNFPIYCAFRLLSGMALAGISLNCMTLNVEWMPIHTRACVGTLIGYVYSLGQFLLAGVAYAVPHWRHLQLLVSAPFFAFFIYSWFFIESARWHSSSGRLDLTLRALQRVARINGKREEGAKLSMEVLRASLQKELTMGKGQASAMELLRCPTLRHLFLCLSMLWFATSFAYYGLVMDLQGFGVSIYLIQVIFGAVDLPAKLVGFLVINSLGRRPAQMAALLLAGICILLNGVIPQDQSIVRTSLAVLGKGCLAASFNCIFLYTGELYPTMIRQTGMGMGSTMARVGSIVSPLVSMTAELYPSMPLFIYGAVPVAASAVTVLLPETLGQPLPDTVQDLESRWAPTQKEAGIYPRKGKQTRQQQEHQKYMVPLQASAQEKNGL

[7] = target: T4, OATP1B1 (Homo sapiens, UniProt Q9Y6L6); assay: Inhibition of human OATP1B1 assessed as reduction in OATP1B1- mediated E217betaG transport at 14900 uM relative to control; details: not told, probe E217betaG
T4 sequence (Q9Y6L6 whole entry): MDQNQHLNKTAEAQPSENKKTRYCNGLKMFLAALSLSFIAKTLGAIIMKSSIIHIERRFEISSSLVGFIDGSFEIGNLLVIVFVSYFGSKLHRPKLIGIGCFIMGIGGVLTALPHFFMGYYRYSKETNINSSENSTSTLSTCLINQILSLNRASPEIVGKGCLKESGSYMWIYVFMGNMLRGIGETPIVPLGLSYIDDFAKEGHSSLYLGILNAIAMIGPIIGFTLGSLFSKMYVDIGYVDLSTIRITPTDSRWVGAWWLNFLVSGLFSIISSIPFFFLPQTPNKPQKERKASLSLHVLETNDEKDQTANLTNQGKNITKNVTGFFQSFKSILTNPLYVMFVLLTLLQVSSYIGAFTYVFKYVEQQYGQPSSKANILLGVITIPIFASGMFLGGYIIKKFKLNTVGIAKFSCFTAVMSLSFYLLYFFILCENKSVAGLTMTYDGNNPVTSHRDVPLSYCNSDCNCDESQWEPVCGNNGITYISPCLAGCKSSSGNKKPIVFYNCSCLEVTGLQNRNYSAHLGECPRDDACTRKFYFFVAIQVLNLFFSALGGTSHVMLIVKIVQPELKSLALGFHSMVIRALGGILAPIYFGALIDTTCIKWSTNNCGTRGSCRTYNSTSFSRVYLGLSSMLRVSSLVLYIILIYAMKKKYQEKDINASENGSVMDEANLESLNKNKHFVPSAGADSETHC

[8] = Reduction of acetyl carnitine in human hepatocytes derived from propionic acidemia patient at 30 uM pretreated for 30 mins followed by 13C-isoleucine addition and measured after 1 hr by MS/MS analysis relative to control; type: functional, Hepatocyte; design: scale not given: the % may be the effect or the level left; details: time 90 min, 1.5 h

Tmax [1]: 26.3 min
inhibition (INH) [2]: Not Active
Papp A→B [4]: > 20 ×10⁻⁶ cm/s
inhibition at 14900 µM [5]: 31.5%
pIC50 [6]: 2.41
inhibition at 14900 µM [7]: 25.9%
Compound: CCC(C)(C)C(=O)O [DIMEBUTIC ACID]
pEC50 [3]: 5.46
Activity [8]: 54%
